Our source for the IC50 values is patent US8278345B2, “Inhibitors of glutaminyl cyclase” (Probiodrug AG, priority 2006, dated 2012).

This experiment deals with hQC (Homo sapiens, UniProt Q16769). Briefly: Inhibitor assay for glutaminyl cyclase activity (fluorometric, H-Gln-βNA / H-Gln-AMC). It is filed as biochemical. The procedure, abridged:
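Coupled fluorometric assay at 30 °C with pyroglutamyl aminopeptidase, in Tris/HCl pH 8.0 with EDTA, substrate H-Gln-βNA (0.2 mM; ex/em 320/410 nm) or H-Gln-AMC (ex/em 380/460 nm), initiated by QC. Screening: 4 mM inhibitor, substrate at 1 KM; Ki from progress curves fitted to competitive inhibition.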

Each structure is given as a SMILES string. Like-named read-outs stand apart in the source and are kept apart here.

hQC, sequence (Q16769 29-361): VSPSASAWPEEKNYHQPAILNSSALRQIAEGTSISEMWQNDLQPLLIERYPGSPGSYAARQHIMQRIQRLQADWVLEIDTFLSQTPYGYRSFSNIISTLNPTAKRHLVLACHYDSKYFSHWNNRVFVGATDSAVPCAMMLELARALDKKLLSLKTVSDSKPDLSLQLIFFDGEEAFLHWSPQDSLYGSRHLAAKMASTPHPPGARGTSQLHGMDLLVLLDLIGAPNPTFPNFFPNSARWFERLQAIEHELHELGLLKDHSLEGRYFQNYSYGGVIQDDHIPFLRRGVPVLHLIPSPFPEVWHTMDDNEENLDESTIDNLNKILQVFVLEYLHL

In the case of `O=C1C(O)=C(c2c[nH]c3ccccc23)C(c2coc3ccccc3c2=O)N1c1ccc2[nH]cnc2c1` (stereo not shown) [Compound 357, 1-(1H-Benzoimidazol-5-yl)-3-hydroxy-4-(1H-indol-3-yl)-5-(4-oxo-4H-chromen-3-yl)-1,5-dihydro-pyrrol-2-one], for the setting “read-out: IC50”, the IC50 was found to be 4720 nM.
On to `Cc1cccc(C2C(C(=O)CC(C)C)=C(O)C(=O)N2c2ccc3[nH]cnc3c2)c1` (stereo not shown) [Compound 458, 1-(1H-Benzoimidazol-5-yl)-3-hydroxy-4-(3-methyl-butyryl)-5-m-tolyl-1,5-dihydro-pyrrol-2-one], for which the IC50 (read-out: IC50) was determined as 580 nM.
Regarding `O=C(O)CC1=C(O)C(=O)N(c2ccc3[nH]cnc3c2)C1c1ccnc2ccccc12` (stereo not shown) [Compound 297, [1-(1H-Benzoimidazol-5-yl)-4-hydroxy-5-oxo-2-quinolin-4-yl-2,5-dihydro-1H-pyrrol-3-yl]-acetic acid], the IC50 (read-out: IC50) worked out at 2380 nM.
Consider `CCCCCC1C(c2ccccc2)=C(O)C(=O)N1CCCn1ccnc1` (stereo not shown) [Compound 89, 3-Hydroxy-1-(3-imidazol-1-yl-propyl)-5-pentyl-4-phenyl-1,5-dihydro-pyrrol-2-one], for which the IC50 (read-out: IC50) was found to be 40 nM.
Same read-out and setting: in the case of `O=C1C(O)=C(c2ccccc2)C(C(F)(F)F)N1CCCn1ccnc1` (stereo not shown) [Compound 96, 3-Hydroxy-1-(3-imidazol-1-yl-propyl)-4-phenyl-5-trifluoromethyl-1,5-dihydro-pyrrol-2-one] it was 400 nM; in that of `CCCCCC1=C(O)C(=O)N(CCCn2ccnc2)C1C(C)CC` (stereo not shown) [Compound 186, 5-sec-Butyl-3-hydroxy-1-(3-imidazol-1-yl-propyl)-4-pentyl-1,5-dihydro-pyrrol-2-one], 400 nM; in that of `CC(C)(C)C(=O)C1=C(O)C(=O)N(c2ccc3[nH]cnc3c2)C1` [Compound 465, 1-(1H-Benzoimidazol-5-yl)-4-(2,2-dimethyl-propionyl)-3-hydroxy-1,5-dihydro-pyrrol-2-one], 6160 nM.
In the case of `CCCC1C(c2cccc(O)c2)=C(O)C(=O)N1CCCn1ccnc1` (stereo not shown) [Compound 7, 3-Hydroxy-4-(3-hydroxy-phenyl)-1-(3-imidazol-1-yl-propyl)-5-propyl-1,5-dihydro-pyrrol-2-one], the IC50 (read-out: IC50) came out at 400 nM.
As for `CCC1=C(O)C(=O)N(CCCn2ccnc2)C1c1ccc(C)cc1` (stereo not shown) [Compound 221, 4-Ethyl-3-hydroxy-1-(3-imidazol-1-yl-propyl)-5-p-tolyl-1,5-dihydro-pyrrol-2-one], the IC50 (read-out: IC50) came out at 400 nM.
The same measure, in the same setting: then `CCC1=C(O)C(=O)N(c2ccc3[nH]cnc3c2)C1c1c(F)ccc(Cl)c1F` (stereo not shown) [Compound 290, 1-(1H-Benzoimidazol-5-yl)-5-(3-chloro-2,6-difluoro-phenyl)-4-ethyl-3-hydroxy-1,5-dihydro-pyrrol-2-one], with 3820 nM; and `CC(=O)C1=C(O)C(=O)N(c2ccc3[nH]cnc3c2)C1c1cc(C)c(C)o1` (stereo not shown) [Compound 433, 4-Acetyl-1-(1H-benzoimidazol-5-yl)-5-(4,5-dimethyl-furan-2-yl)-3-hydroxy-1,5-dihydro-pyrrol-2-one], with 1210 nM; and `O=C1C(O)=C(c2ccc(O)cc2)C(c2ccc3cccc(O)c3n2)N1c1ccc2[nH]cnc2c1` (stereo not shown) [Compound 391, 1-(1H-Benzoimidazol-5-yl)-3-hydroxy-4-(4-hydroxy-phenyl)-5-(8-hydroxy-quinolin-2-yl)-1,5-dihydro-pyrrol-2-one], with 40 nM.
On to `Cc1ccc(C2C(c3ccccc3)=C(O)C(=O)N2CCCn2ccnc2)o1` (stereo not shown) [Compound 84, 3-Hydroxy-1-(3-imidazol-1-yl-propyl)-5-(5-methyl-furan-2-yl)-4-phenyl-1,5-dihydro-pyrrol-2-one], for which the IC50 (read-out: IC50) came to 2200 nM.
Regarding `CC1=C(O)C(=O)N(CCCn2ccnc2)C1c1ccncc1` (stereo not shown) [Compound 44, 3-Hydroxy-1-(3-imidazol-1-yl-propyl)-4-methyl-5-pyridin-4-yl-1,5-dihydro-pyrrol-2-one], the IC50 (read-out: IC50) was determined as 3100 nM.
For the compound `CCCC1C(c2ccccc2)=C(O)C(=O)N1CCCn1ccnc1` (stereo not shown) [Compound 80, 3-Hydroxy-1-(3-imidazol-1-yl-propyl)-4-phenyl-5-propyl-1,5-dihydro-pyrrol-2-one], the IC50 (read-out: IC50) came to 400 nM.
Still for that read-out and setting: then `COc1ccc(C2C(c3cccc(O)c3)=C(O)C(=O)N2CCCn2ccnc2)cc1` (stereo not shown) [Compound 13, 3-Hydroxy-4-(3-hydroxy-phenyl)-1-(3-imidazol-1-yl-propyl)-5-(4-methoxy-phenyl)-1,5-dihydro-pyrrol-2-one], with 2200 nM; and `CC(C)C1=C(O)C(=O)N(c2ccc3[nH]cnc3c2)C1c1cc(F)cc(F)c1F` (stereo not shown) [Compound 253, 1-(1H-Benzoimidazol-5-yl)-3-hydroxy-4-isopropyl-5-(2,3,5-trifluoro-phenyl)-1,5-dihydro-pyrrol-2-one], with 1300 nM.
On the same count and under the same terms, then `CCCCCC1=C(O)C(=O)N(CCCn2ccnc2)C1CCCCC` (stereo not shown) [Compound 196, 3-Hydroxy-1-(3-imidazol-1-yl-propyl)-4,5-dipentyl-1,5-dihydro-pyrrol-2-one], with 40 nM.
Turning to `CC1=C(O)C(=O)N(CCCn2ccnc2)C1c1c[nH]c2ccccc12` (stereo not shown) [Compound 39, 3-Hydroxy-1-(3-imidazol-1-yl-propyl)-5-(1H-indol-3-yl)-4-methyl-1,5-dihydro-pyrrol-2-one], the IC50 (read-out: IC50) is 400 nM.
The same measure, in the same setting: then `CCC/C=C/C1C(c2cccc(O)c2)=C(O)C(=O)N1CCCn1ccnc1` (stereo not shown) [Compound 6, 3-Hydroxy-4-(3-hydroxy-phenyl)-1-(3-imidazol-1-yl-propyl)-5-(pent-1-enyl)-1,5-dihydro-pyrrol-2-one], with 5800 nM; and `O=C1C(O)=C(c2cccc(O)c2)C(c2ccc(O)c(Br)c2)N1c1ccc2[nH]cnc2c1` (stereo not shown) [Compound 294, 1-(1H-Benzoimidazol-5-yl)-5-(3-bromo-4-hydroxy-phenyl)-3-hydroxy-4-(3-hydroxy-phenyl)-1,5-dihydro-pyrrol-2-one], with 5710 nM; and `O=C(C1=C(O)C(=O)N(c2ccc3[nH]cnc3c2)C1c1ccc(CO)o1)C1CCCCC1` (stereo not shown) [Compound 303, 1-(1H-Benzoimidazol-5-yl)-4-cyclohexanecarbonyl-3-hydroxy-5-(5-hydroxymethyl-furan-2-yl)-1,5-dihydro-pyrrol-2-one], with 400 nM.
Still for that read-out and setting: in the case of `O=C1C(O)=C(c2ccccc2)C(c2cc[nH]n2)N1CCCn1ccnc1` (stereo not shown) [Compound 81, 3-Hydroxy-1-(3-imidazol-1-yl-propyl)-4-phenyl-5-(1H-pyrazol-3-yl)-1,5-dihydro-pyrrol-2-one] it was 3100 nM; in that of `CCC1=C(O)C(=O)N(CCCn2ccnc2)C1C(O)CO` (stereo not shown) [Compound 225, 5-(1,2-Dihydroxy-ethyl)-4-ethyl-3-hydroxy-1-(3-imidazol-1-yl-propyl)-1,5-dihydro-pyrrol-2-one], 40 nM.
Take `CCCCCC(=O)C1=C(O)C(=O)N(c2ccc3[nH]cnc3c2)C1CC` (stereo not shown) [Compound 463, 1-(1H-Benzoimidazol-5-yl)-5-ethyl-4-hexanoyl-3-hydroxy-1,5-dihydro-pyrrol-2-one]: for the setting “read-out: IC50”, the 50% inhibitory concentration (IC50) was found to be 4000 nM.
With `O=C1C(O)=C(c2cccc(O)c2)C(c2cc(Cl)cc(Cl)c2O)N1CCCn1ccnc1` (stereo not shown) [Compound 4, 5-(3,5-Dichloro-2-hydroxy-phenyl)-3-hydroxy-4-(3-hydroxy-phenyl)-1-(3-imidazol-1-yl-propyl)-1,5-dihydro-pyrrol-2-one], the IC50 (read-out: IC50) stood at 2200 nM.
On the same count and under the same terms, then `CCCCCC1=C(O)C(=O)N(CCCn2ccnc2)C1c1ccccc1O` (stereo not shown) [Compound 194, 3-Hydroxy-5-(2-hydroxy-phenyl)-1-(3-imidazol-1-yl-propyl)-4-pentyl-1,5-dihydro-pyrrol-2-one], with 40 nM; and `CCCCCC(=O)C1=C(O)C(=O)N(c2ccc3[nH]cnc3c2)C1c1ccc(C)o1` (stereo not shown) [Compound 258, 1-(1H-Benzoimidazol-5-yl)-4-hexanoyl-3-hydroxy-5-(5-methyl-furan-2-yl)-1,5-dihydro-pyrrol-2-one], with 2560 nM.
`CCCC1C(CC)=C(O)C(=O)N1CCCn1ccnc1` (stereo not shown) [Compound 223, 4-Ethyl-3-hydroxy-1-(3-imidazol-1-yl-propyl)-5-propyl-1,5-dihydro-pyrrol-2-one]: where the note is “read-out: IC50”, the IC50 was found to be 2200 nM.
Still for that read-out and setting: in the case of `O=C1C(O)=C(c2c[nH]c3ccccc23)C(c2cc[nH]n2)N1CCCn1ccnc1` (stereo not shown) [Compound 116, 3-Hydroxy-1-(3-imidazol-1-yl-propyl)-4-(1H-indol-3-yl)-5-(1H-pyrazol-3-yl)-1,5-dihydro-pyrrol-2-one] it was 400 nM; in that of `O=C1C(O)=C(c2ccc(O)cc2)C(c2ncc[nH]2)N1CCCn1ccnc1` (stereo not shown) [Compound 168, 3-Hydroxy-4-(4-hydroxy-phenyl)-5-(1H-imidazol-2-yl)-1-(3-imidazol-1-yl-propyl)-1,5-dihydro-pyrrol-2-one], 2200 nM; in that of `O=C1C(O)=C(c2ccccc2)C(CO)N1CCCn1ccnc1` (stereo not shown) [Compound 104, 3-Hydroxy-5-hydroxymethyl-1-(3-imidazol-1-yl-propyl)-4-phenyl-1,5-dihydro-pyrrol-2-one], 40 nM.
As for `O=C1C(O)=C(c2ccc(O)cc2)C(C2CCC=CO2)N1CCCn1ccnc1` (stereo not shown) [Compound 163, 5-(3,4-Dihydro-2H-pyran-2-yl)-3-hydroxy-4-(4-hydroxy-phenyl)-1-(3-imidazol-1-yl-propyl)-1,5-dihydro-pyrrol-2-one], the IC50 reads like this: (compound from preparative synthesis, purified, read-out: IC50 hQC) 559 nM; (read-out: IC50) 40 nM.
Regarding `CCCC1=C(O)C(=O)N(c2ccc3[nH]cnc3c2)C1c1ccc(C(=O)O)o1` (stereo not shown) [Compound 292, 5-[1-(1H-Benzoimidazol-5-yl)-4-hydroxy-5-oxo-3-propyl-2,5-dihydro-1H-pyrrol-2-yl]-furan-2-carboxylic acid], the IC50 (read-out: IC50) was 9940 nM.
Consider `CCC/C=C/C1C(CCCCC)=C(O)C(=O)N1CCCn1ccnc1` (stereo not shown) [Compound 185, 3-Hydroxy-1-(3-imidazol-1-yl-propyl)-5-(pent-1-enyl)-4-pentyl-1,5-dihydro-pyrrol-2-one], for which the IC50 (read-out: IC50) came out at 1300 nM.
`O=C1C(O)=C(c2ccccc2)C(c2ccc(N3CCCC3)cc2)N1c1ccc2[nH]cnc2c1` (stereo not shown) [Compound 309, 1-(1H-Benzoimidazol-5-yl)-3-hydroxy-4-phenyl-5-(4-pyrrolidin-1-yl-phenyl)-1,5-dihydro-pyrrol-2-one]: the IC50 (read-out: IC50) was 6880 nM.

As a reminder, the IC50 is the point on the concentration scale where inhibition reaches its midpoint.
